Data: PMC6704710, “Preclinical evaluation of 3D185, a novel potent inhibitor of FGFR1/2/3 and CSF-1R, in FGFR-dependent and macrophage-dominant cancer models” (Journal of Experimental & Clinical Cancer Research : CR, 2019)

Assays:
DRAK1(h) = biological target: T1, DRAK1(h) (Homo sapiens, UniProt Q9UEE5); assay: Eurofins kinase panel; assay type: biochemical; details: read-out: Inhibition rate (%)
T1 construct: purchased Eurofins (KinaseProfiler)
T1 sequence (Q9UEE5 1-414): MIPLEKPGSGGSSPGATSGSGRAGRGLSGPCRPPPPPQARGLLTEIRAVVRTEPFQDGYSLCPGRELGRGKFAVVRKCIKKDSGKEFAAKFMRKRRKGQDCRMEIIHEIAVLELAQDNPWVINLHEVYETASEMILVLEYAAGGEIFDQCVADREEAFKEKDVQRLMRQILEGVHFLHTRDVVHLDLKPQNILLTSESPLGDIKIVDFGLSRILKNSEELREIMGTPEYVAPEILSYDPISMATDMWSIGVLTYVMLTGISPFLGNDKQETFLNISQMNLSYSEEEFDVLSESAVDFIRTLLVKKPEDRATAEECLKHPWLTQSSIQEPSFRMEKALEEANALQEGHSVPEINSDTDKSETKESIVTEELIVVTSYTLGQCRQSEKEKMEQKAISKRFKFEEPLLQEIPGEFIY

EBC-1 = assay: Cell proliferation assay; assay type: cell-based; details: Homo sapiens, Fig. 2G
Experimental: (§1) The cancer cell lines indicated in Figure 3 were seeded in 96-well plates at a low density in growth medium. The next day, appropriate controls or the designated concentrations of the compounds were added to each well, and the cells were incubated for 72 h. HUVECs (passage 3) were seeded in 96-well plates in growth medium overnight and transferred to serum-free medium for 24 h. The following day, appropriate controls or the designated concentrations of the compounds were added to each well, and 100 ng/mL growth factor (bFGF or VEGF) was added to the indicated wells. The cells were incubated for 48 h. Finally, cell proliferation was determined using a sulforhodamine B (SRB) assay or a cell counting kit-8 (CCK-8) assay. […] IC50 values for proliferation curves were calculated using a 4-parameter logistic nonlinear regression model with SoftMax Pro Software (Molecular Devices, San Jose, USA).

MKN28 = assay: Cell proliferation assay; assay type: cell-based; details: Homo sapiens, MKN-28; Fig. 2G
Experimental: as §1

CAL51 = assay: Cell proliferation assay; assay type: cell-based; details: Homo sapiens, CAL-51; Fig. 2G
Experimental: as §1

MKN1 = assay: Cell proliferation assay; assay type: cell-based; details: Homo sapiens, MKN-1; Fig. 2G
Experimental: as §1

NCI-H460 = assay: Cell proliferation assay; assay type: cell-based; details: Homo sapiens, Fig. 2G
Experimental: as §1

MCF-7 = assay: Cell proliferation assay; assay type: cell-based; details: Homo sapiens, MCF7; Fig. 2G
Experimental: as §1

HCC366 = assay: Cell proliferation assay; assay type: cell-based; details: Homo sapiens, Fig. 2G
Experimental: as §1

T47D = assay: Cell proliferation assay; assay type: cell-based; details: Homo sapiens, Fig. 2G
Experimental: as §1

HCC78 = assay: Cell proliferation assay; assay type: cell-based; details: Homo sapiens, Fig. 2G
Experimental: as §1

BGC-823 = assay: Cell proliferation assay; assay type: cell-based; details: Homo sapiens, Fig. 2G
Experimental: as §1

NCI-H520 = assay: Cell proliferation assay; assay type: cell-based; details: Homo sapiens, Fig. 2G
Experimental: as §1

HCC1954 = assay: Cell proliferation assay; assay type: cell-based; details: Homo sapiens, Fig. 2G
Experimental: as §1

SK-BR-3 = assay: Cell proliferation assay; assay type: cell-based; details: Homo sapiens, Fig. 2G
Experimental: as §1

NCI-H1975 = assay: Cell proliferation assay; assay type: cell-based; details: Homo sapiens, Fig. 2G
Experimental: as §1

MKN45 = assay: Cell proliferation assay; assay type: cell-based; details: Homo sapiens, MKN-45; Fig. 2G
Experimental: as §1

MDA-MB-453 = assay: Cell proliferation assay; assay type: cell-based; details: Homo sapiens, Fig. 2G
Experimental: as §1

A375 = assay: Cell proliferation assay; assay type: cell-based; details: Homo sapiens, A-375; Fig. 2G
Experimental: as §1

NCI-H2444 = assay: Cell proliferation assay; assay type: cell-based; details: Homo sapiens, Fig. 2G
Experimental: as §1

NCI-H1299 = assay: Cell proliferation assay; assay type: cell-based; details: Homo sapiens, Fig. 2G
Experimental: as §1

TAO1(h) = biological target: T2, TAO1(h) (Homo sapiens, UniProt Q7L7X3); assay: Eurofins kinase panel; assay type: biochemical; details: read-out: Inhibition rate (%)
T2 construct: purchased Eurofins (KinaseProfiler)
T2 sequence (Q7L7X3 1-1001): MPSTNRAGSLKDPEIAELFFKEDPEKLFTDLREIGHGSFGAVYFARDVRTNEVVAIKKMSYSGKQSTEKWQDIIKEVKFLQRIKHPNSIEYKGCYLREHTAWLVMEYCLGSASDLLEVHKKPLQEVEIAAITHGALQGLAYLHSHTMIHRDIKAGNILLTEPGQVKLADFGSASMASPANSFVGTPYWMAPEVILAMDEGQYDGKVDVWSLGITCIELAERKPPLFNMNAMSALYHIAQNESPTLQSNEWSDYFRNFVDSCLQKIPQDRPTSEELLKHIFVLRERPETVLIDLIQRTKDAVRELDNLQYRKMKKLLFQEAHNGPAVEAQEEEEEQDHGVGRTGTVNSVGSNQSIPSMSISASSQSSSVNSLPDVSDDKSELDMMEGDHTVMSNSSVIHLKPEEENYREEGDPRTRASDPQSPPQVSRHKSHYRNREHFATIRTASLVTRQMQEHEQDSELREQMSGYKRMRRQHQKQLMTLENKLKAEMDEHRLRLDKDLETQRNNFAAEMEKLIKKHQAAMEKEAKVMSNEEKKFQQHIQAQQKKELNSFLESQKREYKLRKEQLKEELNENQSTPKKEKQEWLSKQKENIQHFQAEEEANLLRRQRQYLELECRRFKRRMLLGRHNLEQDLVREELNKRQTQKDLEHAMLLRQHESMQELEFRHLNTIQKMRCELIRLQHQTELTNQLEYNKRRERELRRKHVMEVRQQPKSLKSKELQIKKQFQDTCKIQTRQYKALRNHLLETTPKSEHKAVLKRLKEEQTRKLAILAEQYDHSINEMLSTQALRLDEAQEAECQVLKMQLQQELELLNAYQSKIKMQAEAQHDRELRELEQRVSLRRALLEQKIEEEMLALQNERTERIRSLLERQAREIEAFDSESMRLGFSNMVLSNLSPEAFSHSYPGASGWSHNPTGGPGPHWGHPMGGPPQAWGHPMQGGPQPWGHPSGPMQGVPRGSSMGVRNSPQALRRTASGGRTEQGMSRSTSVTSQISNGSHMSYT

cKit(h) = biological target: T3, cKit(h) (Homo sapiens, UniProt P10721); assay: Eurofins kinase panel; assay type: biochemical; details: read-out: Inhibition rate (%)
T3 construct: purchased Eurofins (KinaseProfiler)
T3 sequence (P10721 26-976): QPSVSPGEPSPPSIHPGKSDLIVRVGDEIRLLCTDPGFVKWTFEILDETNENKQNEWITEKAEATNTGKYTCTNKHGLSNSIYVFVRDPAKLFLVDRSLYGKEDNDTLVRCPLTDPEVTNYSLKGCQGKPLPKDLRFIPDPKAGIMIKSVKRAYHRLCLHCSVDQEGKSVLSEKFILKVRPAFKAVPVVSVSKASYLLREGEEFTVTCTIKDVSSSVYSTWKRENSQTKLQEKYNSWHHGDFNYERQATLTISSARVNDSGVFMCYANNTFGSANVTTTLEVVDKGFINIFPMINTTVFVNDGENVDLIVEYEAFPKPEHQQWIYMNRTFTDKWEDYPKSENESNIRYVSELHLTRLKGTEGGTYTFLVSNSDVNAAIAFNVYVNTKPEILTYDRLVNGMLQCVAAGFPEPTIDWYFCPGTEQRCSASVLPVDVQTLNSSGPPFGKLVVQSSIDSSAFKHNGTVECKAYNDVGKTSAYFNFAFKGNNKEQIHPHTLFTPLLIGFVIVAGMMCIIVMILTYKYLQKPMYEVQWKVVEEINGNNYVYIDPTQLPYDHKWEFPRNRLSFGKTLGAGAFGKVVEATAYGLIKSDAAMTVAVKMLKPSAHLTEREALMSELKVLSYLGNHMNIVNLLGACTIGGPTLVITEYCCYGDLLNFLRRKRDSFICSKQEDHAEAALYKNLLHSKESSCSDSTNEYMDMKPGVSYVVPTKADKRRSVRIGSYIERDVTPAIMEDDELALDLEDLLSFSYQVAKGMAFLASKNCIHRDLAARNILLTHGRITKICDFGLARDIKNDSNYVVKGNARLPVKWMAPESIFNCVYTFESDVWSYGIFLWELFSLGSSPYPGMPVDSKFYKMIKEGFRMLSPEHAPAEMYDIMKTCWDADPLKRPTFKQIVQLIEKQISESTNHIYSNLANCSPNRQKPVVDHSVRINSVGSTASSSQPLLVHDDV

## COc1cc(OC)c(Cl)c(-c2ccc3c(NC(=O)c4ccc(N5CCNC(C)(C)C5)cc4)n[nH]c3n2)c1Cl [3D185]
DRAK1(h); 10 nM
  inhibition at 0.01 µM: -4%
DRAK1(h); 100 nM
  inhibition at 0.1 µM: 7%
DRAK1(h); 1000 nM
  inhibition at 1 µM: 14%
EBC-1
  IC50: > 1000 nM
MKN28
  IC50: > 1000 nM
CAL51
  IC50: > 1000 nM
MKN1
  IC50: > 1000 nM
NCI-H460
  IC50: > 1000 nM
MCF-7
  IC50: > 1000 nM
HCC366
  IC50: > 1000 nM
T47D
  IC50: > 1000 nM
HCC78
  IC50: > 1000 nM
BGC-823
  IC50: > 1000 nM
NCI-H520
  IC50: > 1000 nM
HCC1954
  IC50: > 1000 nM
SK-BR-3
  IC50: > 1000 nM
NCI-H1975
  IC50: > 1000 nM
MKN45
  IC50: > 1000 nM
MDA-MB-453
  IC50: > 1000 nM
A375
  IC50: > 1000 nM
NCI-H2444
  IC50: > 1000 nM
NCI-H1299
  IC50: > 1000 nM
TAO1(h); 10 nM
  inhibition at 0.01 µM: -2%
TAO1(h); 100 nM
  inhibition at 0.1 µM: 6%
TAO1(h); 1000 nM
  inhibition at 1 µM: 21%
cKit(h); 10 nM
  inhibition at 0.01 µM: 19%
cKit(h); 100 nM
  inhibition at 0.1 µM: 35%
cKit(h); 1000 nM
  inhibition at 1 µM: 76%
